Assays:
PI3K isoforms = conditions: literature; cited from earlier work
p110α/p85 = p110α/p85 (Homo sapiens, UniProt P42336); experiment: Reversible inhibition of isolated enzyme, lipid kinase assay; type: biochemical; conditions: recombinant enzyme, 100 μM ATP, 1 hr, average of two experiments
Description: Compounds were evaluated for their ability to inhibit Class I PI 3-kinase enzymes p110δ/p85, p110α/p85, and p110β/p85. Reaction mixtures comprising 0.1 μg of a recombinant enzyme, 10 μg of L-α-phosphatidylinositol, and 2× Lipid Kinase Buffer (40 mM Tris-HCl, pH 7.4, 200 mM NaCl, 1 mM EDTA), which contains either DMSO only as a control or the test compound in DMSO (the final DMSO concentration is 1%), were activated by the addition of an ATP mix (5 mM MgCl2, 100 μM ATP, and 0.1 μL [γ^33P]ATP). Reactions were incubated at room temperature for 1 hr, and then stopped by the addition of 1M HCl. The lipids were then extracted using a two step procedure. Firstly, 200 μL of chloroform/methanol (1:1) was added, the biphasic reactions mixed and centrifuged briefly, and the inorganic phase was removed and discarded. Following this, 80 μL of methanol:HCl (1:1) was added and the same procedure followed. The organic phase (70 μL) was then transferred to a clean 1.6 mL tube and the reactions were dried using a Speedvac, with no heating, for 30 min. The reactions were spotted onto TLC plates (Merck Ltd) and developed for 1 hr in propanol-1:2 M acetic acid (13:7). The TLC plates were then dried at room temperature and quantified using a phosphorimager (StormImager, Amersham). Nine compound concentrations were used for each test compound to determine its IC50 value. Each experiment was performed twice and the average IC50 value is used herein.

Sequence of p110α/p85 (P42336 whole entry): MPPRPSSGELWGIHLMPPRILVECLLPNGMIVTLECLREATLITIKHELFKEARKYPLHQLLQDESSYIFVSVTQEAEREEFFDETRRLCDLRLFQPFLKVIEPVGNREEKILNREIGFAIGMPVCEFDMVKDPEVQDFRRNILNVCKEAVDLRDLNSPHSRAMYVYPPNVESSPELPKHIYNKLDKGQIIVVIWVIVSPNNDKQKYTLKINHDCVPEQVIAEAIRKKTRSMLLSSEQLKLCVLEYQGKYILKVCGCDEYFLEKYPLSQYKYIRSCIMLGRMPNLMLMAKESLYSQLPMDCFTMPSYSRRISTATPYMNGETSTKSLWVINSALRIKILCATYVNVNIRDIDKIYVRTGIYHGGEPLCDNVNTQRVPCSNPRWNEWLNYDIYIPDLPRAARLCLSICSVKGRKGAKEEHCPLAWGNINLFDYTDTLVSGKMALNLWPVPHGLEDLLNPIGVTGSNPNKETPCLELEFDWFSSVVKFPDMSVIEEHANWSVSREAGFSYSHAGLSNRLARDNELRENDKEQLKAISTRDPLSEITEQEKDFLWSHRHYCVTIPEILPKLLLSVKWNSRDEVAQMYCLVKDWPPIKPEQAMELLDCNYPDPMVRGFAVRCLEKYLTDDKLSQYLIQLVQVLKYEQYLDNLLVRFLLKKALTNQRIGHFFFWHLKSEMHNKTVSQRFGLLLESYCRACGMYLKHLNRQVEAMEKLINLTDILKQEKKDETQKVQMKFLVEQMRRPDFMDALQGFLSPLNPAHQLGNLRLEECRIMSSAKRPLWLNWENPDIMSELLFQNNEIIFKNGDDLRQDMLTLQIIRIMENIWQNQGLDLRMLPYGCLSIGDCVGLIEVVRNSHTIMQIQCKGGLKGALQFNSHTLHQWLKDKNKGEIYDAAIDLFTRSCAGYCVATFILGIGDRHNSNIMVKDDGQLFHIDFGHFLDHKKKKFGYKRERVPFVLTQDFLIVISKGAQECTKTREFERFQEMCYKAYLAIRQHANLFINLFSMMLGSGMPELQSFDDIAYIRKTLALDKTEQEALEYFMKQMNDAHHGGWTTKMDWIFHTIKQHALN
Sequence of p110α/p85 (P27986 whole entry partner): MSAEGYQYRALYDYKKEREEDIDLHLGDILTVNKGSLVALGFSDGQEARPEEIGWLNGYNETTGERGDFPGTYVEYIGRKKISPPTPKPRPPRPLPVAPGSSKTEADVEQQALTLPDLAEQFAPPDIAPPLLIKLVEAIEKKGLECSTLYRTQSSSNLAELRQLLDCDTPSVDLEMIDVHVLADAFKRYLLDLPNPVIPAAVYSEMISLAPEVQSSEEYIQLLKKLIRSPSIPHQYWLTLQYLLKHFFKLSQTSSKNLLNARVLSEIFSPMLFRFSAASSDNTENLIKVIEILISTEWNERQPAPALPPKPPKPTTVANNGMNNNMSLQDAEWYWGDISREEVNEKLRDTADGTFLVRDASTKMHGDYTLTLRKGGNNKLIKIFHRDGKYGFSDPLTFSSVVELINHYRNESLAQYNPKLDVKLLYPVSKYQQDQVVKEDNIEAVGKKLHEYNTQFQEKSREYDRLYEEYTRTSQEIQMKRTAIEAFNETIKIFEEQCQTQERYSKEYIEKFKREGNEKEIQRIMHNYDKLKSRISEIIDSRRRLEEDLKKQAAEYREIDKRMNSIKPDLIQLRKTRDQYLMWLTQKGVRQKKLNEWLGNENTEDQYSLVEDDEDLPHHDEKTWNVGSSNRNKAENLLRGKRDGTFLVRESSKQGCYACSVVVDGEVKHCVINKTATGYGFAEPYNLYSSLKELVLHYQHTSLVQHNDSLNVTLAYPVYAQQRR

Structure (SMILES)	PI3K isoform selectivity (PI3K isoforms)	IC50 (p110α/p85) [nM]	melting point [°C]	mode of PI3K inhibition (reversible / irreversible) (PI3K isoforms)
O=C1NC(=O)/C(=C\c2ccc3nccnc3c2)S1 [AS605240]	γ-selective	–	–	–
COc1cccc2c1nc(C(F)F)n2-c1nc(N2CCOCC2)nc(N(C)C2CCN(S(=O)(=O)CCl)CC2)n1 [Example 21, N-{1-[(chloromethyl)sulfonyl]-4-piperidinyl}-4-[2-(difluoromethyl)-4-methoxy-1H-benzimidazol-1-yl]-N-methyl-6-(4-morpholinyl)-1,3,5-triazin-2-amine]	–	< 100	212 to 215	–
COc1cccc2c1nc(C(F)F)n2-c1nc(N2CCOCC2)nc(N2CCC(NC(=O)CCl)CC2)n1 [Example 22, 2-chloro-N-{1-[4-[2-(difluoromethyl)-4-methoxy-1H-benzimidazol-1-yl]-6-(4-morpholinyl)-1,3,5-triazin-2-yl]-4-piperidinyl}acetamide]	–	< 100	252 to 254	–
COc1cccc2c1nc(C(F)F)n2-c1nc(N2CCOCC2)nc(N2CCC(N(C)C(=O)CCl)CC2)n1 [Example 23, 2-chloro-N-{1-[4-[2-(difluoromethyl)-4-methoxy-1H-benzimidazol-1-yl]-6-(4-morpholinyl)-1,3,5-triazin-2-yl]-4-piperidinyl}-N-methylacetamide]	–	< 100	206 to 208	–
COc1cccc2c1nc(C(F)F)n2-c1nc(N2CCOCC2)nc(N2CC[C@@H](NC(=O)CCl)C2)n1 [Example 25, 2-chloro-N-{(3R)-1-[4-[2-(difluoromethyl)-4-methoxy-1H-benzimidazol-1-yl]-6-(4-morpholinyl)-1,3,5-triazin-2-yl]pyrrolidinyl}acetamide]	–	< 100	270 to 275	–
COc1cccc2c1nc(C(F)F)n2-c1nc(N2CCOCC2)nc(N2CC[C@@H](N(C)C(=O)CCl)C2)n1 [Example 27, 2-chloro-N-{(3R)-1-[4-[2-(difluoromethyl)-4-methoxy-1H-benzimidazol-1-yl]-6-(4-morpholinyl)-1,3,5-triazin-2-yl]pyrrolidinyl}-N-methylacetamide]	–	< 100	231 to 233	–
COc1cccc2c1nc(C(F)F)n2-c1nc(N2CCOCC2)nc(N2CC[C@H](N(C)C(=O)CCl)C2)n1 [Example 28, 2-chloro-N-{(3S)-1-[4-[2-(difluoromethyl)-4-methoxy-1H-benzimidazol-1-yl]-6-(4-morpholinyl)-1,3,5-triazin-2-yl]pyrrolidinyl}-N-methylacetamide]	–	< 100	230 to 232	–
COc1cccc2c1nc(C(F)F)n2-c1nc(N[C@@H]2CCN(C(=O)CCl)C2)nc(N2CCOCC2)n1 [Example 29, N-[(3R)-1-(chloroacetyl)pyrrolidinyl]-4-[2-(difluoromethyl)-4-methoxy-1H-benzimidazol-1-yl]-6-(4-morpholinyl)-1,3,5-triazin-2-amine]	–	< 100	208 to 210	–
COc1cccc2c1nc(C(F)F)n2-c1nc(N[C@H]2CCN(C(=O)CCl)C2)nc(N2CCOCC2)n1 [Example 30, N-[(3S)-1-(chloroacetyl)pyrrolidinyl]-4-[2-(difluoromethyl)-4-methoxy-1H-benzimidazol-1-yl]-6-(4-morpholinyl)-1,3,5-triazin-2-amine]	–	< 100	208 to 211	–
COc1cccc2c1nc(C(F)F)n2-c1nc(N2CCOCC2)nc(N(C)[C@@H]2CCN(C(=O)CCl)C2)n1 [Example 31, N-[(3R)-1-(chloroacetyl)pyrrolidinyl]-4-[2-(difluoromethyl)-4-methoxy-1H-benzimidazol-1-yl]-N-methyl-6-(4-morpholinyl)-1,3,5-triazin-2-amine]	–	< 100	219 to 221	–
COc1cccc2c1nc(C(F)F)n2-c1nc(N2CCOCC2)nc(N(C)[C@H]2CCN(C(=O)CCl)C2)n1 [Example 32, N-[(3S)-1-(chloroacetyl)pyrrolidinyl]-4-[2-(difluoromethyl)-4-methoxy-1H-benzimidazol-1-yl]-N-methyl-6-(4-morpholinyl)-1,3,5-triazin-2-amine]	–	< 100	219 to 221	–
COc1cccc2c1nc(C(F)F)n2-c1nc(N2CCOCC2)nc(N2CCC[C@@H](NC(=O)CCl)C2)n1 [Example 33]	–	< 100	231 to 233	–
COc1cccc2c1nc(C(F)F)n2-c1nc(N2CCOCC2)nc(N2CCC[C@H](NC(=O)CCl)C2)n1 [Example 34, 2-chloro-N-{(3S)-1-[4-[2-(difluoromethyl)-4-methoxy-1H-benzimidazol-1-yl]-6-(4-morpholinyl)-1,3,5-triazin-2-yl]piperidinyl}acetamide]	–	< 100	227 to 229	–
COc1cccc2c1nc(C(F)F)n2-c1nc(N2CCOCC2)nc(N2CCC[C@@H](N(C)C(=O)CCl)C2)n1 [Example 35, 2-chloro-N-{(3R)-1-[4-[2-(difluoromethyl)-4-methoxy-1H-benzimidazol-1-yl]-6-(4-morpholinyl)-1,3,5-triazin-2-yl]piperidinyl}-N-methylacetamide]	–	< 100	201 to 203	–
COc1cccc2c1nc(C(F)F)n2-c1nc(N[C@@H]2CCCN(C(=O)CCl)C2)nc(N2CCOCC2)n1 [Example 37]	–	< 100	190 to 192	–
COc1cccc2c1nc(C(F)F)n2-c1nc(N2CCOCC2)nc(N2CC(NC(=O)CCl)C2)n1 [Example 41, 2-chloro-N-{1-[4-[2-(difluoromethyl)-4-methoxy-1H-benzimidazol-1-yl]-6-(4-morpholinyl)-1,3,5-triazin-2-yl]-3-azetidinyl}acetamide]	–	< 100	272 to 275	–
COc1cccc2c1nc(C(F)F)n2-c1nc(N2CCOCC2)nc(N2CC(N(C)C(=O)CCl)C2)n1 [Example 42, 2-chloro-N-{1-[4-[2-(difluoromethyl)-4-methoxy-1H-benzimidazol-1-yl]-6-(4-morpholinyl)-1,3,5-triazin-2-yl]-3-azetidinyl}-N-methylacetamide]	–	< 100	233 to 236	–
COc1cccc2c1nc(C(F)F)n2-c1nc(NC2CN(C(=O)CCl)C2)nc(N2CCOCC2)n1 [Example 43, N-[1-(chloroacetyl)-3-azetidinyl]-4-[2-(difluoromethyl)-4-methoxy-1H-benzimidazol-1-yl]-6-(4-morpholinyl)-1,3,5-triazin-2-amine]	–	< 100	219 to 221	–
COc1cccc2c1nc(C(F)F)n2-c1nc(N2CCOCC2)nc(N(C)C2CN(C(=O)CCl)C2)n1 [Example 44, N-[1-(chloroacetyl)-3-azetidinyl]-4-[2-(difluoromethyl)-4-methoxy-1H-benzimidazol-1-yl]-N-methyl-6-(4-morpholinyl)-1,3,5-triazin-2-amine]	–	< 100	220 to 222	–
COc1cccc2c1nc(C(F)F)n2-c1nc(OC2CCN(C(=O)CCl)CC2)nc(N2CCOCC2)n1 [Example 45, 1-[4-{[1-(chloroacetyl)-4-piperidinyl]oxy}-6-(4-morpholinyl)-1,3,5-triazin-2-yl]-2-(difluoromethyl)-4-methoxy-1H-benzimidazole]	–	< 100	170 to 172	–
COc1cccc2c1nc(C(F)F)n2-c1nc(N2CCOCC2)c2cnn(C3CCN(S(=O)(=O)CCl)CC3)c2n1 [Example 48, 1-{1-[(chloromethyl)sulfonyl]-4-piperidinyl}-6-[2-(difluoromethyl)-4-methoxy-1H-benzimidazol-1-yl]-4-(4-morpholinyl)-1H-pyrazolo[3,4-d]pyrimidine]	–	< 100	250 to 253	–
Cc1ccccc1-n1c(Cn2cnc3c(N)ncnc32)nc2cccc(C)c2c1=O [IC87114]	δ-selective	–	–	–
Oc1cccc(-c2nc(N3CCOCC3)c3oc4ncccc4c3n2)c1 [PI103]	slightly α-selective	–	–	–
C=CCN(/C=C1/C(=O)O[C@H](COC)[C@@]2(C)C1=C(O)C(=O)C1=C2[C@H](OC(C)=O)C[C@]2(C)C(=O)CC[C@@H]12)CC=C [PX-866]	not selective for individual PI3K isoforms	–	–	irreversible activity
Cc1cc(C(C)Nc2ccccc2)c2nc(N3CCOCC3)cc(=O)n2c1 (centres unmarked) [TGX221]	β-selective	–	–	–
FC(F)c1nc2ccccc2n1-c1nc(N2CCOCC2)nc(N2CCOCC2)n1 [ZSTK474]	non-selective	–	–	–

From patent US20110053907A1, “SUBSTITUTED PYRIMIDINES AND TRIAZINES AND THEIR USE IN CANCER THERAPY” (Auckland UniServices Limited, priority 2008, published 2011)
